The assay concerns HIV YU2. In words: Protease inhibitor sensitivity: J53tat cells infected with HIV YU2 with drug, supernatant used to infect J53BL cells. Format: cell-based, HIV-1. As to conditions: for Number of colony formed in the presence of protease Inhibitor Indinavir: YU2, J53tat then J53BL. The method, then: The J53tat cell line is used to produce virus and thereby enable viral testing of drug candidates that affect various stages of the virus life cycle. Thus, viral drug resistance mutations in early stage targets such as reverse transcriptase (RT), integrase (IN) and env; and late stage targets such as protease and Gag are analyzed by the methods of the present invention. The J53tat cells are infected with HIV YU2 (MOI of either 0.2 or 0.04), and protease inhibitor (indinavir) is added to the cultures at various concentrations. Forty hours after infection the culture supernatant is collected and used to infect the J53BL cell line in the presence of the same drug concentrations.

Turning to `CC(C)(C)NC(=O)[C@@H]1CN(Cc2cccnc2)CCN1C[C@@H](O)C[C@@H](Cc1ccccc1)C(=O)N[C@H]1c2ccccc2C[C@H]1O` [indinavir], the “Number of colony formed in the presence of protease Inhibitor Indinavir” value runs as follows: (0.04 M.O.I, 0.008 MM indinavir) 105; (0.04 M.O.I, 0.2 MM indinavir) 2; (0.04 M.O.I, 1.0 MM indinavir) 0; (0.04 M.O.I) 2; (0.2 M.O.I, 0.008 MM indinavir) above 1000; (0.2 M.O.I, 0.2 MM indinavir) 99. The “Number of colony formed in the presence of protease Inhibitor Indinavir” value was found to be 0 (0.2 M.O.I, 1.0 MM indinavir) and 343 (0.2 M.O.I). Moreover, the “Sensitivity of YU2 to protease inhibitor” value (increasing concentrations causing greater inhibition) is reported as “sensitive”.

The values above are taken from patent US6797462B1, “Cell-based assay for immunodeficiency virus infectivity and sensitivity” (UAB Research Foundation, priority 1998, dated 2004).
